Source: patent publication US10881107B2, “Antimicrobial compositions containing alkylpyrazines and their uses” (ROOMBIOTIC GMBH, priority 2015, dated 2021)

Experiment: antimicrobial activity test of alkyl pyrazine compounds or mixtures
Assay type: cell-based
Excerpt: Several alkyl pyrazine compounds or mixtures thereof have been tested for their antimicrobial activity.

Row | SMILES | Antimicrobial activity | Degree of antimicrobiai activity
1 | Cc1cnc(C)c(C)n1 [2,3,5-Trimethylpyrazine, reference compound] | No | –
2 | Cc1nccnc1C [2,3-Dimethylpyrazine, reference compound] | Yes | Weak
3 | Cc1cnc(C)cn1 [2,5-Dimethylpyrazine, reference compound] | Yes | Weak
4 | CC(=O)c1cnccn1 [2-Acetylpyrazine, reference compound] | No | –
5 | COc1nccnc1CC(C)C [2-Isobutyl-3-methoxypyrazine] | Yes | Strong
6 | Cc1nccnc1CC(C)C [2-Isobutyl-3-methylpyrazine] | Yes | Strong
7 | CC(C)Cc1cnccn1 [2-Isobutylpyrazine] | Yes | Strong
8 | CC(C)c1cnccn1 [2-Isopropylpyrazine] | Yes | Strong
9 | Cc1nc(C(C)C)c(C(C)C)nc1C(C)C [TS-73] | No | –
